We go through two compounds from US20180064665A1 (UNIVERSITY-INDUSTRY COOPERATION GROUP OF KYUNG HEE …, priority 2015, published 2018).

Data set [1] is described as follows: Measurement of cell viability (MTT). It counts as cell-based, mouse. The conditions noted are these: mouse, Raw264.7 macrophage cells, Raw264.7 cells, with LPS 1 μg/mL, mean of three measurements, read-out: Cell viability (IC50 for cell toxicity). The procedure:
Raw264.7 cells (macrophage cell line from mouse) were obtained from Korean Cell Line Bank (KCLB) and cultured in Dulbecco's modified Eagle's medium containing 10% FBS, penicillin (100 units/ml), streptomycin sulfate (100 μg/ml) at 37° C. and 5% CO2 in humidified environment.
Cells were collected by centrifugation and scraping, and seeded at 1×10^5 cells/well in a 96 well plate containing 100 μl of RPMI 1640 medium with 10% FBS. 3β, 4β-epoxy-8α-isobutyryloxyguaia-1(10), 11, (13)-diene-12.6α-olide was dissolved in dimethylsulfoxide (DMSO) solvent and the concentration of DMSO was not more than 0.1% in all experiments. Next day, test compounds and LPS (1 μg/mL) were added and the plate were cultured for 24 hrs. After washing cells once, 50 μl of the medium containing 5 mg/ml MTT but without FBS was added and cells were cultured at 37° C. for 4 hrs. And then, the medium was removed, formazan blue formed in the cells was dissolved in 100 μl of DMSO, and an absorbance was measured at 540 nm to obtain IC50 values for cell toxicity. […] The results are shown in the above Table 1 and the values are means of three measurements.

Another data set relates to PGE2 production. The data set is described as follows: Inhibitory activity on PGE2 production in LPS-treated Raw264.7 cells (PGE2 immunoassay). The data set is classed as cell-based, mouse. The conditions noted are these: Mus musculus, LPS 1 μg/mL; for IC50: mean of three measurements, read-out: Inhibition of PGE2 production IC50. The procedure: Raw264.7 cells (macrophage cell line from mouse) were obtained from Korean Cell Line Bank (KCLB) and cultured in Dulbecco's modified Eagle's medium (DMEM) containing 10% Fetal Bovine Serum (FBS), penicillin (100 units/mL), streptomycin sulfate (100 μg/mL) at 37° C. and 5% CO2 in humidified environment. RAW264.7 cells at 5×10^5 cells/mL were seeded at 1 mL/well in 24 wells using DMEM, left overnight, replaced with a fresh medium and then treated with a test compound of an appropriate concentration. The cells were incubated for 1 hr and then treated with LPS at 1 μg/mL and incubated for 24 hrs (or proper period). A supernatant was taken and diluted five times. 150 μL of an analysis buffer was added to Non Specific Binding (NSB) well, and 100 μL of an analysis buffer was added to zero point standard (B0) well. 100 μL of a standard sample was added to the other wells and 50 μL of PGE2 conjugate was added (excluding NSB). 50 μL of PGE2 antibody solution was added and wells were shaken for 2 hrs. Each well was suctioned and washed with a wash buffer five times. Each 200 μL of para-Nitrophenyl phosphate (pNPP) substrate was added to the all wells and the wells were stored in a bench at room temperature for 1 hr. 50 μL of stop solution was added and an absorbance was measured at 405 nm. The amount of PGE2 was quantified using the measured absorbance and a standard curve and compared to a group treated with LPS only to obtain a concentration inhibiting 50% (IC50). The results are shown in the following Table 1 and the presented values are means of three measurements.

For the compound `O=C(Oc1ccccc1)N(NS(=O)(=O)c1ccccc1)c1ccccc1` [Comparative Example 1, N-phenyl-N′-(phenoxycarbonyl)-phenylsulfonhydrazide, reference compound], the concentration for half-maximal inhibition (IC50) at 24 h in data set [1] was more than 10 µM. Besides, the IC50 in the data set on PGE2 production worked out at 5.7 µM. In the data set with PGE2 production (compound at 10 μM), this compound showed an inhibition at 10 µM of 84.4%.
As to `Cc1cc(C)c(S(=O)(=O)N(Nc2ccccc2)C(=O)Oc2ccc3c(c2)CCC3)c(C)c1` [Example 28], the concentration for half-maximal inhibition (IC50) at 24 h in data set [1] was more than 1 µM. For the same compound, the concentration for half-maximal inhibition (IC50) in the data set on PGE2 production was 0.0586 µM. The same compound returned an inhibition at 0.1 µM with PGE2 production (compound at 0.1 μM) of 57.2%.
